Our source for the IC50 values is US20170000749A1, “Methods for Treating Cognitive Disorders Using Inhibitors of Histone Deacetylase” (Forum Pharmaceuticals, Inc., priority 2008, published 2017).

What is called IC50 is the concentration that inhibits the measured activity by half.

Each structure is given as a SMILES string. Where two headings read alike, the source gives them in different places.

The subject of assay [1] is HDAC activity in primary mouse cortical cultures. Kind of assay: Whole-Cell Histone Deacetylase (HDAC) Inhibition Assay in Primary Mouse Cortical Cultures. Type of assay: cell-based. The procedure, abridged: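 Primary neocortical neurons from E17 Balb/C mouse embryos were plated at 50000 cells/well and treated at DIV9 with ten-point DMSO dilutions for 16-18 h at 37° C, in triplicate. BOC-Lys(Ac)-AMC substrate was then added for 1 h. Fluor de Lys developer containing 1 uM TSA produced a fluorophore, which was read.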

Assay [2] addresses one or more of HDAC-1, HDAC-2, HDAC-3, HDAC-4, HDAC-5, HDAC-6, HDAC-7, HDAC-8, HDAC-9, HDAC-10 and HDAC-11. Kind of assay: Inhibition of Histone Deacetylase Enzymatic Activity (Boc-Lys(Ac)-AMC substrate, Fluor-de-Lys developer). Type of assay: biochemical. The settings on record: read-out: HDAC Inhibition (IC50 μM) HDAC Enzyme. How it is done: The following protocol is used to assay the compounds of the disclosure.
The mixture is pre-incubated for 5 minutes at room temperature. The reaction is started by bringing the temperature to 37° C. and adding 16 μl substrate. Total reaction volume is 50 μl.
In the Tables 8, 9 and 10, A≦0.05 μM; 0.05 μM<B≦0.1 μM; 0.1 μM<C≦1 μM; and 1 μM<D≦10 μM.

The mark [3] stands for this setting: whole-cell (WC), mouse cortical neurons, Table 10, read-out: HDAC Inhibition (IC50 μM) WC mouse cortical neurons.
The mark [4] stands for this setting: whole-cell (WC), mouse cortical neurons, Table 8, read-out: HDAC Inhibition (IC50 μM) WC mouse cortical neurons.
Setting [5] is: read-out: HDAC Inhibition (IC50 μM) WC mouse cortical neurons, Table 10.

In the case of `O=C(NO)c1ccc(CN2c3ccccc3C=Cc3ccccc32)cc1` [(Z)-4-((5H-dibenzo[b,f]azepin-5-yl)methyl)-N-hydroxybenzamide], the IC50 in assay [1] (setting [3]) is 5 to 15 µM; in assay [2] (Table 10), below 0.05 µM.

For the compound `O=C(NO)c1ccc(C2=Nc3ccccc3Oc3ncccc32)cc1` [(Z)-4-(benzo[b]pyrido[3,2-f][1,4]oxazepin-5-yl)-N-hydroxybenzamide], the half-inhibitory concentration (IC50) in assay [1] (setting [4]) is 1 to 5 µM; in assay [2] (Table 8) it was 0.05 to 0.1 µM.

Take `O=C(NO)c1ccc(C2=Nc3ccccc3Oc3cnccc32)cc1` [(Z)-4-(benzo[b]pyrido[4,3-f][1,4]oxazepin-5-yl)-N-hydroxybenzamide]: the concentration for half-maximal inhibition (IC50) in assay [1] (setting [4]) is below 1 µM; in assay [2] (Table 8) it was 0.1 to 1 µM.

As for `O=C(NO)c1ccc(C2=Nc3cccnc3Oc3ccccc32)cc1` [(Z)-4-(benzo[f]pyrido[2,3-b][1,4]oxazepin-6-yl)-N-hydroxybenzamide], the IC50 was 1 to 5 µM in assay [1] (setting [4]) and below 0.05 µM in assay [2] (Table 8).

On to `O=C(NO)c1ccc(C2=Nc3ccsc3Oc3ccccc32)cc1` [(Z)-4-(benzo[f]thieno[2,3-b][1,4]oxazepin-5-yl)-N-hydroxybenzamide], for which the IC50 was 1 to 5 µM in assay [1] (setting [4]) and 0.1 to 1 µM in assay [2] (Table 8).

With `O=C(NO)c1ccc(C2=Nc3ccccc3Oc3ccccc32)cc1F` [(Z)-4-(dibenzo[b,f][1,4]oxazepin-11-yl)-2-fluoro-N-hydroxybenzamide], the half-maximal inhibitory concentration (IC50) in assay [1] (setting [4]) was 5 to 15 µM; in assay [2] (Table 8), 0.1 to 1 µM.

In the case of `O=C(NO)c1ccc(C2=Nc3ccccc3Oc3ccccc32)cc1` [(Z)-4-(dibenzo[b,f][1,4]oxazepin-11-yl)-N-hydroxybenzamide], the IC50 in assay [1] (setting [4]) is below 1 µM; in assay [2] (Table 8), below 0.05 µM.

`O=C(NO)c1ccc(C2=Nc3ccccc3Oc3c[n+]([O-])ccc32)cc1` [(Z)-5-(4-(hydroxycarbamoyl)phenyl)benzo[b]pyrido[4,3-f][1,4]oxazepine 2-oxide]: the values for the half-inhibitory concentration (IC50) in assay [1] (setting [4]) and in assay [2] (Table 8) were 5 to 15 µM and 0.1 to 1 µM, respectively.

Turning to `O=C(CCCCN1c2ccccc2C=Cc2ccccc21)NO` [(Z)-5-(5H-dibenzo[b,f]azepin-5-yl)-N-hydroxypentanamide], the figures for the IC50 in assay [1] (setting [3]) and in assay [2] (Table 10) were 5 to 15 µM and 0.1 to 1 µM, respectively.

With `O=C(CCCCCN1c2ccccc2C=Cc2ccccc21)NO` [(Z)-6-(5H-dibenzo[b,f]azepin-5-yl)-N-hydroxyhexanamide], the half-inhibitory concentration (IC50) was 1 to 5 µM in assay [1] (setting [3]) and below 0.05 µM in assay [2] (Table 10).

For `O=C(CCCCCC(=O)N1c2ccccc2C=Cc2ccccc21)NO` [(Z)-7-(5H-dibenzo[b,f]azepin-5-yl)-N-hydroxy-7-oxoheptanamide], the IC50 in assay [1] (setting [3]) is below 1 µM; in assay [2] (Table 10) it was below 0.05 µM.

Turning to `O=C(CCCCCCN1c2ccccc2C=Cc2ccccc21)NO` [(Z)-7-(5H-dibenzo[b,f]azepin-5-yl)-N-hydroxyheptanamide], the figures for the IC50 in assay [1] (setting [3]) and in assay [2] (Table 10) were 1 to 5 µM and below 0.05 µM, respectively.

Turning to `O=C(CCCCCCC(=O)N1c2ccccc2C=Cc2ccccc21)NO` [(Z)-8-(5H-dibenzo[b,f]azepin-5-yl)-N-hydroxy-8-oxooctanamide], the concentration for half-maximal inhibition (IC50) lay in the range of 5 to 15 µM in assay [1] (setting [3]) and 0.1 to 1 µM in assay [2] (Table 10).

As to `CN1C(=O)CN=C(c2ccccc2)c2ccc(CCC(=O)NO)cc21` [(Z)-N-hydroxy-3-(1-methyl-2-oxo-5-phenyl-2,3-dihydro-1H-benzo[e][1,4]diazepin-8-yl)propanamide], the concentration for half-maximal inhibition (IC50) is 5 to 15 µM in assay [1] (setting [5]) and 0.1 to 1 µM in assay [2] (Table 10).

As for `CN1C(=O)CN=C(c2ccc(C(=O)NO)cc2)c2ccccc21` [(Z)-N-hydroxy-4-(1-methyl-2-oxo-2,3-dihydro-1H-benzo[e][1,4]diazepin-5-yl)benzamide], the half-inhibitory concentration (IC50) in assay [1] (setting [5]) lay in the range of 5 to 15 µM; in assay [2] (Table 10), 0.1 to 1 µM.

Turning to `O=C(NO)c1ccc(C2=Nc3ccc(C(F)(F)F)nc3Oc3ccccc32)cc1` [(Z)-N-hydroxy-4-(2-(trifluoromethyl)benzo[f]pyrido[2,3-b][1,4]oxazepin-6-yl)benzamide], the IC50 lay in the range of 5 to 15 µM in assay [1] (setting [4]) and 0.05 to 0.1 µM in assay [2] (Table 8).
